Values quoted from earlier work in PMC6931083 (Journal of Pharmaceutical Analysis, 2019).

Conditions: ref 6 (Hentz et al.)

| Substance | Decrease in biological activity as compared to the native insulin [%] | Biological activity compared to the native insulin |
| --- | --- | --- |
| A1 conjugated FITC-insulin: literature (Hentz et al.) FITC-insulin conjugated at A1 | 10 |  |
| di-conjugated FITC-insulin: di-conjugated FITC-insulin at B1 and A1 (literature value, Hentz et al.) | 100 |  |
| mono-conjugated FITC-insulin (tagged at B1 position): literature (Hentz et al.) mono-conjugated FITC-insulin tagged at B1 position |  | same biological activity as the native insulin |
